Assay: method code SF-HPLC, from PMID: 1388632
Conditions: pH 7.4

Row | SMILES | logD
1 | CC(=O)OCc1c2c(n3c1CCC3)C(=O)C(C)=C(C(C)=O)C2=O | 2.81
2 | CC(=O)OCc1c2c(n3c1C(O)CCC3)C(=O)C=C(C(C)=O)C2=O (centres undefined) | 0.89
3 | CC(=O)OCc1c2c(n3c1C(OC(C)=O)CC3)C(=O)C(C)=C(N1CC1)C2=O (centres undefined) | 1.75
4 | CC(=O)C1=CC(=O)c2c(c(CO)c3n2CCCC3O)C1=O (centres undefined) | 0.37
5 | CCCC(=O)OCc1c2c(n3c1C(OC(=O)CCC)CC3)C(=O)C(C)=C(C(C)=O)C2=O (centres undefined) | 4
6 | CC(=O)C1=CC(=O)c2c(c(CO)c3n2CCC3O)C1=O (centres undefined) | -0.09
7 | CC(=O)OCc1c2c(n3c1C(OC(C)=O)CC3)C(=O)C=C(C(C)=O)C2=O (centres undefined) | 1.15
8 | CC(=O)C1=C(C)C(=O)c2c(c(CO)c3n2CCC3O)C1=O (centres undefined) | 1.14
9 | CCNC(=O)OCc1c2c(n3c1C(O)CC3)C(=O)C(C)=C(OC)C2=O (centres undefined) | 1.83
